Columns and labels:
Settings in all cases: percent inhibition of specific binding
[1] = target: T1, human recombinant serotonin (5-Hydroxytryptamine) 5-HT6 receptor (Homo sapiens, UniProt P50406); assay: Serotonin 5-HT6 radioligand binding ([3H]LSD); set-up: Inhibition of ligand binding, Ser. 5-HT6: concentration or dose not given beside the values
T1 construct: expressed in transfected cells; host or cells: human HeLa cells
Source text: Receptor proteins were filtered and washed, the filters were then counted to determine [3H]LSD specifically bound. […] Biochemical assay results are presented as the percent inhibition of specific binding in Table 6.

[2] = target: T2, Serotonin (5-Hydroxytryptamine) 5-HT7 (Homo sapiens, UniProt P34969); assay: Serotonin 5-HT7 radioligand binding ([3H]LSD); set-up: Inhibition of ligand binding, Ser. 5-HT7: concentration or dose not given beside the values
T2 construct: expressed in transfected cells; host or cells: CHO cells
T2 sequence (P34969 whole entry): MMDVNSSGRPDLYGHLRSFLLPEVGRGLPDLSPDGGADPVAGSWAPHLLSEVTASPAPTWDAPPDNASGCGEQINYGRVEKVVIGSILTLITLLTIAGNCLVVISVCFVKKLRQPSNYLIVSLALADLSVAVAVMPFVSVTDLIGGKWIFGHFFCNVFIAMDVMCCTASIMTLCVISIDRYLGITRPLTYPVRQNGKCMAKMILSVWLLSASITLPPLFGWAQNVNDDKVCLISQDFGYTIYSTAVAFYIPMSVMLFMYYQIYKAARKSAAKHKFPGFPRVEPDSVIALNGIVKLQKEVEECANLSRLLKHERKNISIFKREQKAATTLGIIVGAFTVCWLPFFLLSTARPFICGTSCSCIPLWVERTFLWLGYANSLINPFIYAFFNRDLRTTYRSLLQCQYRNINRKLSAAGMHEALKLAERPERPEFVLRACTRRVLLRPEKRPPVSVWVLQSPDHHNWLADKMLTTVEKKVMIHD
Protocol: Lysergic acid diethylamide (LSD) for 2 hours at 25° C. […] Receptor proteins were filtered and washed, the filters were then counted to determine [^3H]LSD specifically bound. […] Biochemical assay results are presented as the percent inhibition of specific binding in Table 6.

[3] = target: T3, human recombinant adrenergic α2A receptor (Homo sapiens, UniProt P08913); assay: Adrenergic α2A radioligand binding ([3H]MK-912); set-up: Inhibition of ligand binding, Adren. alpha2A: concentration or dose not given beside the values
T3 construct: expressed in transfected cells; host or cells: insect Sf9 cells
T3 sequence (P08913 1-465): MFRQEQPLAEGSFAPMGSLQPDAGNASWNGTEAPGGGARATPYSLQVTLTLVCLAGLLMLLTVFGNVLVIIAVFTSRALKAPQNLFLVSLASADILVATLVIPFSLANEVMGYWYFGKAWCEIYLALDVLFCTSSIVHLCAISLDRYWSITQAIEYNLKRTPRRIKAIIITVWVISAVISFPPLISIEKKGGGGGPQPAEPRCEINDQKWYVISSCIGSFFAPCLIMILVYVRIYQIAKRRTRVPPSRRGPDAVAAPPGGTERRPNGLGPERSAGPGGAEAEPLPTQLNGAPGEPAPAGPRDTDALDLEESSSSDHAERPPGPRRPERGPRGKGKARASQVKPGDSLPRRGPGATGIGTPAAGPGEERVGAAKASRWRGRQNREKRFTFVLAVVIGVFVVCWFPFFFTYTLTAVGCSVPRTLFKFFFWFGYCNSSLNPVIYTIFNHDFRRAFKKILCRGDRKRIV
Method in brief: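 Membranes from Sf9 cells expressing the receptor were incubated with 1 nM [3H]MK-912 for 60 minutes at 25° C in 50 mM Tris-HCl pH 7.4, 12.5 mM MgCl2, 2 mM EDTA. 10 μM WB-4101 defined non-specific binding. Values are percent inhibition of specific bound radioactivity after filtration.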

[4] = target: T4, human recombinant serotonin (5-Hydroxytryptamine) 5-HT2C receptor (Homo sapiens, UniProt P28335); assay: Serotonin 5-HT2C radioligand binding ([3H]Mesulergine); set-up: Inhibition of ligand binding, Ser. 5-HT2C: concentration or dose not given beside the values
T4 construct: expressed in transfected cells; host or cells: CHO-K1 cells
T4 sequence (P28335 33-458): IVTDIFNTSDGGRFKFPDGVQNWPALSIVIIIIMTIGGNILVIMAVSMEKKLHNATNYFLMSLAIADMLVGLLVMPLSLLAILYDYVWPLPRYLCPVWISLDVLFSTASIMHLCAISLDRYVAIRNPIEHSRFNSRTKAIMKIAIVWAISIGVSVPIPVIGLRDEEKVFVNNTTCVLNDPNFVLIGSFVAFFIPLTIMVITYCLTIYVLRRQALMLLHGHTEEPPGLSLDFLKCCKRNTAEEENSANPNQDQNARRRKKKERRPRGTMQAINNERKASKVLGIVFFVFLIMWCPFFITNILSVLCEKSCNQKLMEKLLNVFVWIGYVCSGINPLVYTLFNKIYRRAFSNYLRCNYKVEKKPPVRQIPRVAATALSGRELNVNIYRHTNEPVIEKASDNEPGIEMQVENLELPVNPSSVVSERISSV
Protocol: Compounds of the invention were incubated with 1 nM [^3H]Mesulergine for 60 minutes at 25° C. Non-specific binding was estimated in the presence of 1 μM Mianserin. Receptor proteins were filtered and washed, the filters were then counted to determine [^3H]Mesulergine specifically bound. […] Biochemical assay results are presented as the percent inhibition of specific binding in Table 6.

T1 sequence (P50406 whole entry): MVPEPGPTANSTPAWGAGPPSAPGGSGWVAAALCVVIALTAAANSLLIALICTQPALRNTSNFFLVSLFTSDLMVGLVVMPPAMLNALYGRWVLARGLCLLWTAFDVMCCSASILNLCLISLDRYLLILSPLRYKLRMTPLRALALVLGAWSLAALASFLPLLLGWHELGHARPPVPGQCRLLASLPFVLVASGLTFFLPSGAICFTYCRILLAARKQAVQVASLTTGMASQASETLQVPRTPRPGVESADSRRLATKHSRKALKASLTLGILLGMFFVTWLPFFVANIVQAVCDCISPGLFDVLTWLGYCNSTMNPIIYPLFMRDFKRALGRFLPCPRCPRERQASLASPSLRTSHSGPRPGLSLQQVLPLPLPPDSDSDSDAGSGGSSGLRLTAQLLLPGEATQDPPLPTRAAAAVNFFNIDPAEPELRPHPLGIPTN

| SMILES | Inhibition of ligand binding, Ser. 5-HT6 [1] [%] | Inhibition of ligand binding, Ser. 5-HT7 [2] [%] | Inhibition of ligand binding, Adren. alpha2A [3] [%] | Inhibition of ligand binding, Ser. 5-HT2C [4] [%] |
| --- | --- | --- | --- | --- |
| CN1CCc2c(c3ccccc3n2CCc2ccccc2)C1 [Compound 2, 2,3,4,5-tetrahydro-2-methyl-5-phenethyl-1H-pyrido[4,3-b]indole] | 95 | 100 | 94 | 97 |
| Cc1ccc2c(c1)c1c(n2CCc2ccc(C)nc2)CC(=O)N(C)C1 [Compound 195, 1,2-dihydro-2,8-dimethyl-5-(2-(6-methylpyridin-3-yl)ethyl)-4H-pyrido[4,3-b]indol-3(5H)-one] | 8 | 2 | 4 | −5 |
| CN1CCc2c(c3cc(Cl)ccc3n2CCn2cccc2)C1 [Compound 349, 8-Chloro-2-methyl-5-(2-pyrrol-1-yl-ethyl)-2,3,4,5-tetrahydro-1H-pyrido[4,3-b]indole] | 101 | 100 | 96 | 98 |
| CN1CCc2c(c3cc(Cl)ccc3n2CCc2cncnc2)C1 [Compound 424, 8-Chloro-2-methyl-5-(2-pyrimidin-5-yl-ethyl)-2,3,4,5-tetrahydro-1H-pyrido[4,3-b]indole] | 82 |  | 28 | 76 |
| CN1CCc2c(c3cc(Cl)ccc3n2CCc2cncc(C(F)(F)F)c2)C1 [Compound 426, 8-chloro-5-(2-(5-(trifluoromethyl)pyridin-3-yl)ethyl)-2,3,4,5-tetrahydro-2-methyl-1H-pyrido[4,3-b]indole] | 65 |  | 42 | 80 |
| OC1CCC(N2CCc3c(c4cc(Cl)ccc4n3CCc3ccc(C(F)(F)F)nc3)C2)C1 (stereo not drawn) [Compound 351, 3-(8-chloro-5-(2-(6-(trifluoromethyl)pyridin-3-yl)ethyl)-3,4-dihydro-1H-pyrido[4,3-b]indol-2(5H)-yl)cyclopentanol] | −4 |  | 8 | 26 |
| CCc1ccc2c(c1)c1c(n2CCc2cnc(C)nc2)CCN(C)C1 [Compound 362, 8-Ethyl-2-methyl-5-[2-(2-methyl-pyrimidin-5-yl)-ethyl]-2,3,4,5-tetrahydro-1H-pyrido[4,3-b]indole] | 61 |  | 14 | 40 |
| Cc1ccc2c(c1)c1c(n2CC(=O)N2CCSCC2)CCN(C)C1 [Compound 399, 2-(1,2,3,4-tetrahydro-2,8-dimethylpyrido[4,3-b]indol-5-yl)-1-thiomorpholinoethanone] | −5 |  | 16 | 73 |
| Cc1ccc(CCn2c3c(c4cc(C(=O)O)ccc42)CN(C)CC3)cn1 [Compound 256, 2-Methyl-5-(2-(6-methylpyridin-3-yl)ethyl)-2,3,4,5-tetrahydro-1H-pyrido[4,3-b]indole-8-carboxylic acid] | 2 |  | −7 | 0 |
| CC(C)N1CCN(C(=O)Cn2c3c(c4cc(Cl)ccc42)CN(C)CC3)CC1 [Compound 248] | 67 |  | 27 | 59 |
| Cc1ccc2c(c1)c1c(n2CC(=O)N2CCc3ccccc3C2)CCN(C)C1 [Compound 398, 2-(1,2,3,4-tetrahydro-2,8-dimethylpyrido[4,3-b]indol-5-yl)-1-(3,4-dihydroisoquinolin-2(1H)-yl)ethanone] | 15 |  | 23 | 69 |
| CN1CCc2c(c3cc(F)ccc3n2CCc2ccc(Cl)cc2)C1 [Compound 249] | 101 |  | 97 | 98 |
| Cc1ccc2c(c1)c1c(n2CC(=O)N2CCC(C)CC2)CCN(C)C1 [Compound 251] | 7 |  | 2 | 23 |
| Cc1ccc(CCn2c3c(c4cc(Cl)ccc42)CN(c2cccc(C(F)(F)F)c2)CC3)cn1 [Compound 403, 8-Chloro-5-[2-(6-methyl-pyridin-3-yl)-ethyl]-2-(3-trifluoromethyl-phenyl)-2,3,4,5-tetrahydro-1H-pyrido[4,3-b]indole] | 0 |  | 30 | 35 |
| Cc1ccc2c(c1)c1c(n2CCc2cncc(C(F)(F)F)c2)CCN(C)C1 [Compound 425, 5-(2-(5-(trifluoromethyl)pyridin-3-yl)ethyl)-2,3,4,5-tetrahydro-2,8-dimethyl-1H-pyrido[4,3-b]indole] | 64 |  | 49 | 72 |
| CC(C)c1ccc2c(c1)c1c(n2CCc2ccc(C(F)(F)F)nc2)CCN(C)C1 [Compound 342, 8-Isopropyl-2-methyl-5-[2-(6-trifluoromethyl-pyridin-3-yl)-ethyl]-2,3,4,5-tetrahydro-1H-pyrido[4,3-b]indole] | 72 |  | 94 | 73 |
| Cc1ccc2c(c1)c1c(n2CC(=O)N2CCCC2)CCN(C)C1 [Compound 257, 2-(1,2,3,4-tetrahydro-2,8-dimethylpyrido[4,3-b]indol-5-yl)-1-(pyrrolidin-1-yl)ethanone] | 2 |  | −4 | 47 |
| CN1CCc2c(c3cc(OC(F)(F)F)ccc3n2CCc2ccc(C(F)(F)F)nc2)C1 [Compound 341, 5-(2-(6-(trifluoromethyl)pyridin-3-yl)ethyl)-2,3,4,5-tetrahydro-2-methyl-8-(trifluoromethoxy)-1H-pyrido[4,3-b]indole] | 17 |  | 36 | 16 |

— patent US9096591B2, “Tetracyclic compounds” (Medivation Technologies, Inc., priority 2007, dated 2015)
